Reference: publication PMC5126668 (PeerJ, 2016)
Where “and” joins values, the source holds several entries; their conditions need not be identical. Equal values may be shown once.

Assays:
CYP2D6 = target: T1, CYP2D6 (Homo sapiens, UniProt P10635); test: Inhibition of CYP activities by GA in HLMs (dextromethorphan); type: biochemical
T1 construct: was investigated in HLMs; tissue iPhase Pharmaceutical Services (Beijing, China) Lot # 7MMC011; host or cells: pooled human liver microsomes
Method: (§1) The samples containing HLMs were prepared in an ice bath, and three replicates of each dose were tested.
(§2) The reaction system consisted of 0.5 g/L HLMs, 1 mM NADPH, 25 µM phenacetin (CYP1A2 substrate), 25 µM tolbutamide (CYP2C9 substrate), 25 µM mephenytoin (CYP2C19 substrate), 10 µM dextromethorphan (CYP2D6 substrate) and 10 µM midazolam (CYP3A4 substrate). After incubation at 37 °C for 30 min, 200 µL of methanol containing 100 µg/L propranolol hydrochloride was added to terminate the reaction. The samples were then treated, and the corresponding substrate metabolites of CYP isoforms were detected according to a previously described method ([Shen et al., 2013]).

BAK metabolism in HLMs = test: Metabolic elimination of BAK in HLMs and its inhibition by GA (HPLC); type: in vitro ADME, human; details: for Remaining percentage of GA (%) / Inhibition of BAK by GA (%): 30 min, mean; for Inhibition of BAK by GA, single samples / remaining of GA (%), single samples: t=30 min
Method: The HLM mixtures were prepared on ice. […] At the end of the incubation (0 or 30 min), 200 µL of methanol-acetonitrile (1:1, V:V) solution containing tanshinone II A (internal standard) was added to terminate the reaction. The mixtures were then vortexed for 2 min followed by centrifugation at 14,500 rpm for 10 min. A 10 µL aliquot of the supernatant was then injected for HPLC analysis. […] RContr is the percentage of BAK remaining in the BAK group.

CYP3A4 = target: T2, CYP3A4 (Homo sapiens, UniProt P08684); test: Inhibition of CYP activities by GA in HLMs (midazolam); type: biochemical
T2 construct: was investigated in HLMs; tissue iPhase Pharmaceutical Services (Beijing, China) Lot # 7MMC011; host or cells: pooled human liver microsomes
Method: as §1, §2

HK-2 cells = test: HK-2 cell viability, MTT assay, with or without co-cultured HLMs; type: cell-based, human; details: GA 100 µM alone
Method: HK-2 cells obtained from Peking Union Medical College were maintained in D/F12 medium containing 10% fetal bovine serum, 2 mM glutamine and 1 × 10^5 U/L penicillin and streptomycin at 37 °C in a 5% CO2 atmosphere. […] The samples containing HLMs were prepared in an ice bath, and three replicates were tested for each dose. In brief, HK-2 cells (100 µL) were seeded at 3 × 10^5cells/mL in 96-well plates. After 12 h, 200 µL of the test compound was added. For the BAK and GA with HLMs group, GA was pre-incubated with NADPH in HLMs for 30 min at 37 °C and then mixed with BAK; for the other groups, all tested compounds except NADPH were mixed, and NADPH was then added to start the metabolic reaction. After 4 h of culture, 100 µL of 0.5 g/L MTT was added, and the cells were cultured for 4 h. Subsequently, 150 µL of 4% isopropanol was added to cells for 15 min at 37 °C, and the absorbance at 570 nm was then read by a microplate reader (Multiskan MK3, Thermo, USA). The relative cell viability (%) was calculated as follows: Mean Absorbance of Sample/Mean Absorbance of Vehicle Control × 100%.

T1 sequence (P10635 whole entry): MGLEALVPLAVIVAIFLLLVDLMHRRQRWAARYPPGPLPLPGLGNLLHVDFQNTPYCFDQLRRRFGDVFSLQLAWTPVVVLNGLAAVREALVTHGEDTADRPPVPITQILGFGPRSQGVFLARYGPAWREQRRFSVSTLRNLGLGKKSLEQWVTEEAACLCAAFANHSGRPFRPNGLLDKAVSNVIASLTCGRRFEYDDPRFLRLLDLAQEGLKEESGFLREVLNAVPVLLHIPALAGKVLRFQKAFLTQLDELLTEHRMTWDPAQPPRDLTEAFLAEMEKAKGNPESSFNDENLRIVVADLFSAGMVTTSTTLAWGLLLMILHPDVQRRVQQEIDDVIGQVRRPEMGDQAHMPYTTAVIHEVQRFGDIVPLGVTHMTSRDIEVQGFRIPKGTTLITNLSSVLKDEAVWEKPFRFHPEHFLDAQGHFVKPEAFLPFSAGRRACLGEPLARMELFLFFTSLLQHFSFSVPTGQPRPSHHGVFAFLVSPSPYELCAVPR
T2 sequence (P08684 whole entry): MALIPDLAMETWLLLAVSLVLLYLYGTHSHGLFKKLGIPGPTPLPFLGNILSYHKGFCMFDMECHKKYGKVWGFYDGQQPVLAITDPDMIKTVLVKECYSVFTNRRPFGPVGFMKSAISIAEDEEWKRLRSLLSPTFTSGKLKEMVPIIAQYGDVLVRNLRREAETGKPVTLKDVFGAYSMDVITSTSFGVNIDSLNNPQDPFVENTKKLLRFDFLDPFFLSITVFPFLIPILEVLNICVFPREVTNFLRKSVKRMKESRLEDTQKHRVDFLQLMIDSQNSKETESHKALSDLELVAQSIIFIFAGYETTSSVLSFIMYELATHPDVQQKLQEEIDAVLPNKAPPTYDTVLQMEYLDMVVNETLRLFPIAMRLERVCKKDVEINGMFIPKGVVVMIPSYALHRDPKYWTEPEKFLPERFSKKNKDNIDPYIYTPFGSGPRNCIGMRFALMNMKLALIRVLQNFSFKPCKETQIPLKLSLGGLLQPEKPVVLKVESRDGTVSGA

IC50 (CYP2D6; HLMs, 30 min pre-incubation with NADPH, dextromethorphan 10 µM): 263 ± 1.05 µM
activity at 30 min, 0.1 µM (CYP2D6; human, human liver microsomes, probe dextromethorphan (10 µM), CYP2D6-30min, GA 0.10, vs control, read-out: Relative activity (%)): 96.4%
activity at 30 min, 1 µM (CYP2D6; human, human liver microsomes, probe dextromethorphan (10 µM), CYP2D6-30min, GA 1.00, vs control, read-out: Relative activity (%)): 92.4%
activity at 30 min, 6.25 µM (CYP2D6; human, human liver microsomes, probe dextromethorphan (10 µM), CYP2D6-30min, GA 6.25, vs control, read-out: Relative activity (%)): 96%
activity at 30 min, 31.25 µM (CYP2D6; human, human liver microsomes, probe dextromethorphan (10 µM), CYP2D6-30min, GA 31.25, vs control, read-out: Relative activity (%)): 91.1%
activity at 30 min, 100 µM (CYP2D6; human, human liver microsomes, probe dextromethorphan (10 µM), CYP2D6-30min, GA 100.00, vs control, read-out: Relative activity (%)): 85.1%
activity at 30 min, 156.25 µM (CYP2D6; human, human liver microsomes, probe dextromethorphan (10 µM), CYP2D6-30min, GA 156.25, vs control, read-out: Relative activity (%)): 81.7%
activity at 30 min, 312.5 µM (CYP2D6; human, human liver microsomes, probe dextromethorphan (10 µM), CYP2D6-30min, GA 312.50, vs control, read-out: Relative activity (%)): 42%
activity at 30 min, 1000 µM (CYP2D6; human, human liver microsomes, probe dextromethorphan (10 µM), CYP2D6-30min, GA 1000.00, vs control, read-out: Relative activity (%)): 29.3%
activity at 30 min, […] (CYP2D6; human, human liver microsomes, probe dextromethorphan (10 µM), read-out: Relative activity (%)): 69.7%
Remaining percentage of GA (%) (BAK metabolism in HLMs; GA 12.5 µM with BAK 10 µM, HLMs): 99.37 ± 9.39% and 99.37%
remaining of GA (%), single samples (BAK metabolism in HLMs; GA 12.5 µM, BAK 10 µM): 94.84% and 93.11% and 110.17%
Remaining percentage of GA (%) (BAK metabolism in HLMs; GA 62.5 µM with BAK 10 µM, HLMs): 100.7 ± 12.33% and 100.77%
remaining of GA (%), single samples (BAK metabolism in HLMs; GA 62.5 µM, BAK 10 µM): 112.61% and 101.67% and 88.01%
remaining of GA (%), single samples (BAK metabolism in HLMs; GA 93.75 µM, BAK 10 µM): 94.57% and 101.22%
Remaining percentage of GA (%) (BAK metabolism in HLMs; GA 125.0 µM with BAK 10 µM, HLMs): 107.8 ± 7.54% and 107.76%
remaining of GA (%), single samples (BAK metabolism in HLMs; GA 125 µM, BAK 10 µM): 101.56% and 105.56% and 116.14%
GA concentrations at which significant inhibition of BAK metabolic clearance was observed (BAK metabolism in HLMs; HLMs, BAK 10 µM): above 12.5 µM
IC50 (CYP3A4; HLMs, 30 min pre-incubation with NADPH, midazolam 10 µM, µM): 1.53 ± 2.25 µM
activity at 30 min, 0.1 µM (CYP3A4; human, human liver microsomes, probe midazolam (10 µM), CYP3A4-30min, GA 0.10, vs control, read-out: Relative activity (%)): 95.9%
activity at 30 min, 1 µM (CYP3A4; human, human liver microsomes, probe midazolam (10 µM), CYP3A4-30min, GA 1.00, vs control, read-out: Relative activity (%)): 64.6%
activity at 30 min, 6.25 µM (CYP3A4; human, human liver microsomes, probe midazolam (10 µM), CYP3A4-30min, GA 6.25, vs control, read-out: Relative activity (%)): 39.1%
activity at 30 min, 31.25 µM (CYP3A4; human, human liver microsomes, probe midazolam (10 µM), CYP3A4-30min, GA 31.25, vs control, read-out: Relative activity (%)): 13.5%
activity at 30 min, 100 µM (CYP3A4; human, human liver microsomes, probe midazolam (10 µM), CYP3A4-30min, GA 100.00, vs control, read-out: Relative activity (%)): 15.2%
activity at 30 min, 156.25 µM (CYP3A4; human, human liver microsomes, probe midazolam (10 µM), CYP3A4-30min, GA 156.25, vs control, read-out: Relative activity (%)): 13.1%
activity at 30 min, 312.5 µM (CYP3A4; human, human liver microsomes, probe midazolam (10 µM), CYP3A4-30min, GA 312.50, vs control, read-out: Relative activity (%)): 0.261%
activity at 30 min, 1000 µM (CYP3A4; human, human liver microsomes, probe midazolam (10 µM), CYP3A4-30min, GA 1000.00, vs control, read-out: Relative activity (%)): 0.298%
activity at 30 min, […] (CYP3A4; human, human liver microsomes, probe midazolam (10 µM), read-out: Relative activity (%)): 3.63%
SMILES: CC1(C)[C@@H](O)CC[C@]2(C)[C@H]3C(=O)C=C4[C@@H]5C[C@@](C)(C(=O)O)CC[C@]5(C)CC[C@@]4(C)[C@]3(C)CC[C@@H]12 [GA, Glycyrrhetinic acid]
Inhibition of BAK by GA (%) (BAK metabolism in HLMs; GA 12.5 µM, BAK 10 µM, HLMs): 23% and 22.72 ± 4.55% and 22.72%
Inhibition of BAK by GA, single samples (BAK metabolism in HLMs; GA 12.5 µM, BAK 10 µM): 17.95% and 23.22% and 27.00%
Inhibition of BAK by GA (%) (BAK metabolism in HLMs; GA 62.5 µM, BAK 10 µM, HLMs): 44% and 43.85 ± 22.41% and 43.85%
Inhibition of BAK by GA (%) (BAK metabolism in HLMs; GA 125.0 µM, BAK 10 µM, HLMs): 92% and 92.00 ± 4.64%
Inhibition of BAK by GA, single samples (BAK metabolism in HLMs; GA 125 µM, BAK 10 µM): 97.25% and 88.45% and 90.28%
effect on HK-2 cell survival (HK-2 cells): did not affect
